Data reported in paper PMC4793304 (Bioscience Reports, 2016).
Like-named read-outs stand apart in the source and are kept apart here.

How the values were obtained:
human Pgp [1] = conditions: read-out: Km for ATPase activation; Caco-2 membrane vesicles containing human Pgp; cited from earlier work
human Pgp [2] = conditions: read-out: Km for ATPase activation; human Pgp-enriched insect cell membranes; cited from earlier work
mouse Pgp transporter [3] = biological target: T1, mouse Pgp transporter (Mus musculus, UniProt P21447)
T1 sequence (P21447 whole entry): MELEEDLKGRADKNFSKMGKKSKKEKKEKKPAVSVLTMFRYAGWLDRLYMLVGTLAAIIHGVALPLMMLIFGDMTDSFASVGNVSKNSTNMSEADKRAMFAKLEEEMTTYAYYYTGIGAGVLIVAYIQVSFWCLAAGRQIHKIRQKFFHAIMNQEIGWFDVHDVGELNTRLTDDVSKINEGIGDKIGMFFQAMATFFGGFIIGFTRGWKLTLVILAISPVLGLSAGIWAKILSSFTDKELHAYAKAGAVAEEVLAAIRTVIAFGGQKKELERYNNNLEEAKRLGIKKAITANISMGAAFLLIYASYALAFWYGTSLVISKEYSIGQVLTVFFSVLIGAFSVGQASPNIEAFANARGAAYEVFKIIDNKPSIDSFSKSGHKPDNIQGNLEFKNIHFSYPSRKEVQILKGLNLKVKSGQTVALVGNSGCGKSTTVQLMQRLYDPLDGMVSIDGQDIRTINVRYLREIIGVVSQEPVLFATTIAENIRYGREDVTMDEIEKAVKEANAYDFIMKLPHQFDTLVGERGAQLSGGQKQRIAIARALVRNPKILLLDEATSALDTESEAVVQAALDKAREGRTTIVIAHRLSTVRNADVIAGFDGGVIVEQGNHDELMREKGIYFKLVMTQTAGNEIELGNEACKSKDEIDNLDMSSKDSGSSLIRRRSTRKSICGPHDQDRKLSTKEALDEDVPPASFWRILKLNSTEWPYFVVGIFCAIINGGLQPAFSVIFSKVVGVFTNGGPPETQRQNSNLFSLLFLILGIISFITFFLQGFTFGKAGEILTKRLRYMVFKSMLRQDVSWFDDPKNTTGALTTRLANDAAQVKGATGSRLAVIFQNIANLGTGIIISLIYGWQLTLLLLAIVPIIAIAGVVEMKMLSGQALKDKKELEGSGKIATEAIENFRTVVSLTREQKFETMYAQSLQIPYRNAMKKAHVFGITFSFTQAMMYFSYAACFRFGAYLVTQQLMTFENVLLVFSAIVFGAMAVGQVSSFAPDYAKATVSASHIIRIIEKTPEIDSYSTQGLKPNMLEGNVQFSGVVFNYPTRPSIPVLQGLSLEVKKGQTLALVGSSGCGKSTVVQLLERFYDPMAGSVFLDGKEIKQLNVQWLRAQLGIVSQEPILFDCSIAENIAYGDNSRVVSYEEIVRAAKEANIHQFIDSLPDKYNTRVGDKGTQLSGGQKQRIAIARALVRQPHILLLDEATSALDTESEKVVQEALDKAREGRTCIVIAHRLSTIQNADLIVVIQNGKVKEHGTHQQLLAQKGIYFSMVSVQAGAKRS
Source text: (§1) Drug-induced quenching of protein fluorescence with Pgp reconstituted in liposomes was investigated on an Olis DM 45 spectrofluorimeter (Olis Corp). […] Drug-induced fluorescence quenching was corrected (Fcorrected) for background fluorescence, dilution and inner filter effects with eqn (3) [57]:
3 Fcorrected=F−B10^ɛexbex+ɛembemQ/2
(§2) where F is the measured protein fluorescence, B is the background and [Q] is the quenching ligand concentration. The molar absorption coefficients (ε) for excitation and emission are εex and εem respectively. […] The pathlength (b) along the excitation and emission axes are bex and bem respectively. Drug-induced quenching of protein fluorescence from complexation of the ligand to the protein is known as static quenching, and can be used to estimate the drug's affinity. Drug-induced fluorescence quenching from random collisions with the protein is known as dynamic quenching [57]. Regardless of the nature of the quenching, the fluorescence quenching curves were fit to eqn (4) [57]:
4 Fcorrected=Fcorrected,0/1+KQ
(§3) where Fcorrected,0 is the protein fluorescence in the absence of a quenching ligand and K is the association constant (KA) or the Stern–Volmer quenching constant (KSV) in the case of a static and dynamic quenching processes respectively.

mouse Pgp transporter [4] = biological target: T1, mouse Pgp transporter; conditions: 250 μM digoxin
Procedure: Control acrylamide titrations were performed in the presence of N-acetyl-L-tryptophanamide (NATA) to estimate the degree of non-specific quenching [55]. Fluorescence intensities were corrected for with eqn (3) [57]. To produce the Stern–Volmer plots, the Fcorrected,0/Fcorrected was plotted as a function of the acrylamide concentration. The degree of dynamic tryptophan quenching was estimated from the slopes of the Stern–Volmer curves, which is related to KSV by Fcorrected,0/Fcorrected = 1 + KSV[Q]

mouse Pgp transporter [5] = biological target: T1, mouse Pgp transporter; remark: listed apart in the source
[6] = tested on: human Pgp from Caco-2 cells; conditions: read-out: Km for digoxin transport; cited from earlier work
Pgp = conditions: read-out: Km for ATPase activation (implied); CR1R12 cells; maximal activation not reached at 1000 μM digoxin; cited from earlier work
mouse Pgp transporter [7] = biological target: T1, mouse Pgp transporter; experiment: biochemical
Source text: as §1
3 Fcorrected=F−B10^ɛexbex+ɛembemQ/2
as §2
4 Fcorrected=Fcorrected,0/1+KQ
as §3

mouse Pgp transporter [8] = biological target: T1, mouse Pgp transporter; experiment: biochemical; remark: listed apart in the source
Source text: (§4) Because of the complexity of the model shown in Figure 6A, the kinetics curves in Figures 6B and 6C were fit using the COPASI software package.

mouse Pgp transporter [9] = biological target: T1, mouse Pgp transporter; conditions: proton near the 1,4 β-linkage; 250 μM digoxin, 1 μM Pgp
Procedure: The STDD NMR procedure for membrane proteins was performed as described in [68]. […] The STDD NMR experiments were performed with a double pulsed field gradient spin echo pulse sequence to suppress background water, a 2s train of 50 ms shaped saturation pulses to selectively excite the protein and a total relaxation delay of 5 s [63]. […] Control experiments were performed under identical conditions with liposomes and the drugs. To produce the STDD NMR spectrum, ^1H STD NMR spectrum of liposomes with drugs was subtracted from the ^1H STD NMR spectrum of Pgp reconstituted in liposomes with drugs (ΔI). […] The STDD amplification factor was calculated using the following equation based on the STD amplification factor (eqn 5) [63]:
5 STDDamplificationfactor=L/PΔI/I0
where [P] is the protein concentration and I0 is the amplitude of the ^1H NMR peaks in the absence of saturating pulses.

mouse Pgp transporter [10] = biological target: T1, mouse Pgp transporter; remark: listed apart in the source
Source text: as §4

C[C@H]1O[C@@H](O[C@H]2[C@@H](O)C[C@H](O[C@H]3[C@@H](O)C[C@H](O[C@H]4CC[C@@]5(C)[C@H](CC[C@@H]6[C@@H]5C[C@@H](O)[C@]5(C)[C@@H](C7=CC(=O)OC7)CC[C@]65O)C4)O[C@@H]3C)O[C@@H]2C)C[C@H](O)[C@@H]1O [digoxin]
Km (human Pgp [1]): 1.2 µM | Km (human Pgp [2]): 83.7 µM | K from fluorescence quenching (mouse Pgp transporter [3]; 37°C, no verapamil): 0.0030 ± 0.0008 µM⁻¹ | quenching of Pgp fluorescence at saturating digoxin (mouse Pgp transporter [3]; excitation 280 nm, emission 333 nm, 25°C): ~10% | KSV (acrylamide Stern-Volmer slope of Pgp) (mouse Pgp transporter [4]): 2.29 ± 0.12 M⁻¹ | maximum Pgp-coupled ATPase activity reached (mouse Pgp transporter [5]; 50 nM Pgp in liposomes, verapamil maximum at 8 μM): ~1300 nmol/min/mg | fold activation of ATPase at maximum (mouse Pgp transporter [5]; relative to basal activity, verapamil at 8 μM): ~2 fold | VMAX of drug-induced ATP hydrolysis (mouse Pgp transporter [5]; verapamil fit to substrate inhibition eqn 2, digoxin fit to Michaelis-Menten eqn 1): 1344 ± 149.8 nmol/min/mg | Km [6]: 385 µM | Km (Pgp): > 500 µM | Kd (mouse Pgp transporter [7]): 100 ± 18 µM | Kd (mouse Pgp transporter [8]; KD3 (digoxin, DDI model), in the absence of verapamil): 239 µM | Kd (mouse Pgp transporter [8]; KD4, affinity of digoxin to Pgp in the presence of verapamil, estimated indirectly by fitting with COPASI): 292 ± 89 µM | Kd (mouse Pgp transporter [8]; average KD3, average from fitting all curves): 206 ± 53 µM | highest STDD amplification factor (mouse Pgp transporter [9]): ~8 | average VMAX3 (mouse Pgp transporter [10]; average from fitting all curves): 1981 ± 207 nmol/min/mg | VMAX4,5, ATPase activation from simultaneous binding of digoxin and verapamil (mouse Pgp transporter [10]; both drugs bound, estimated by fitting with COPASI): 121 ± 139 nmol/min/mg | VMAX3 (digoxin, DDI model) (mouse Pgp transporter [10]; in the absence of verapamil): 1983 nmol/min/mg
